What was measured:
Format in all cases: functional
PC-3 [1] = experiment: Growth inhibition of human PC3 cells assessed as cell growth at 10^-4 M by sulforhodamine B assay; details: read-out: Activity
NCI-H23 = experiment: Growth inhibition of human NCI-H23 cells by sulforhodamine B assay
MCF7 [2] = experiment: Growth inhibition of human MCF7 cells assessed as cell growth at 10^-6 M by sulforhodamine B assay; details: read-out: Activity
NCI-H522 [3] = experiment: Growth inhibition of human NCI-H522 cells by sulforhodamine B assay
NCI-H226 [4] = experiment: Growth inhibition of human NCI-H226 cells assessed as cell growth at 10^-4 M by sulforhodamine B assay; details: read-out: Activity
[5] = Growth inhibition of human NCI-ADR-RES cells assessed as cell growth at 10^-8 M by sulforhodamine B assay; details: read-out: Activity
NCI-H522 [6] = experiment: Growth inhibition of human NCI-H522 cells assessed as cell growth at 10^-6 M by sulforhodamine B assay; details: read-out: Activity
TK-10 = experiment: Growth inhibition of human TK10 cells assessed as cell growth at 10^-6 M by sulforhodamine B assay; details: read-out: Activity
[7] = Growth inhibition of human NCI-ADR-RES cells assessed as cell growth at 10^-7 M by sulforhodamine B assay; details: read-out: Activity
SNB-75 = experiment: Growth inhibition of human SNB75 cells assessed as cell growth at 10^-7 M by sulforhodamine B assay; details: read-out: Activity
ACHN = experiment: Growth inhibition of human ACHN cells assessed as cell growth at 10^-4 M by sulforhodamine B assay; details: read-out: Activity
SK-MEL-28 = experiment: Growth inhibition of human SK-MEL-28 cells assessed as cell growth at 10^-8 M by sulforhodamine B assay; details: read-out: Activity
IGROV-1 = experiment: Growth inhibition of human IGROV1 cells assessed as cell growth at 10^-8 M by sulforhodamine B assay; details: read-out: Activity
SK-MEL-5 = experiment: Growth inhibition of human SK-MEL-5 cells by sulforhodamine B assay
UO-31 = experiment: Growth inhibition of human UO31 cells by sulforhodamine B assay
OVCAR-8 = experiment: Growth inhibition of human OVCAR8 cells assessed as cell growth at 10^-7 M by sulforhodamine B assay; details: read-out: Activity
U-251 [8] = experiment: Growth inhibition of human U251 cells assessed as cell growth at 10^-6 M by sulforhodamine B assay; details: read-out: Activity
SF-295 = experiment: Growth inhibition of human SF295 cells by sulforhodamine B assay
SF-268 [9] = experiment: Growth inhibition of human SF268 cells assessed as cell growth at 10^-6 M by sulforhodamine B assay; details: read-out: Activity
HOP-92 = experiment: Growth inhibition of human HOP92 cells assessed as cell growth at 10^-8 M by sulforhodamine B assay; details: read-out: Activity
MCF7 [10] = experiment: Growth inhibition of human MCF7 cells assessed as cell growth at 10^-8 M by sulforhodamine B assay; details: read-out: Activity
MDA-MB-468 = experiment: Growth inhibition of human MDA-MB-468 cells assessed as cell growth at 10^-7 M by sulforhodamine B assay; details: read-out: Activity
NCI-H226 [11] = experiment: Growth inhibition of human NCI-H226 cells assessed as cell growth at 10^-8 M by sulforhodamine B assay; details: read-out: Activity
NCI-H460 = experiment: Growth inhibition of human NCI-H460 cells by sulforhodamine B assay
PC-3 [12] = experiment: Growth inhibition of human PC3 cells by sulforhodamine B assay
M14 = experiment: Growth inhibition of human M14 cells assessed as cell growth at 10^-7 M by sulforhodamine B assay; details: read-out: Activity
SF-268 [13] = experiment: Growth inhibition of human SF268 cells assessed as cell growth at 10^-4 M by sulforhodamine B assay; details: read-out: Activity
SN12C [14] = experiment: Growth inhibition of human SN12C cells assessed as cell growth at 10^-8 M by sulforhodamine B assay; details: read-out: Activity
LOX IMVI = experiment: Growth inhibition of human LOXIMVI cells by sulforhodamine B assay
RPMI-8226 = experiment: Growth inhibition of human RPMI8226 cells assessed as cell growth at 10^-7 M by sulforhodamine B assay; details: read-out: Activity
CAKI-1 = experiment: Growth inhibition of human CAKI-1 cells assessed as cell growth at 10^-6 M by sulforhodamine B assay; details: read-out: Activity
MDA-MB-231 = experiment: Growth inhibition of human MDA-MB-231 cells assessed as cell growth at 10^-6 M by sulforhodamine B assay; details: read-out: Activity
SN12C [15] = experiment: Growth inhibition of human SN12C cells assessed as cell growth at 10^-6 M by sulforhodamine B assay; details: read-out: Activity
MOLT-4 = experiment: Growth inhibition of human MOLT4 cells by sulforhodamine B assay
UACC-62 [16] = experiment: Growth inhibition of human UACC62 cells assessed as cell growth at 10^-6 M by sulforhodamine B assay; details: read-out: Activity
U-251 [17] = experiment: Growth inhibition of human U251 cells assessed as cell growth at 10^-4 M by sulforhodamine B assay; details: read-out: Activity
T47D = experiment: Growth inhibition of human T47D cells assessed as cell growth at 10^-7 M by sulforhodamine B assay; details: read-out: Activity
UACC-62 [18] = experiment: Growth inhibition of human UACC62 cells by sulforhodamine B assay
[19] = read-out: LC50 (the source's name)
[20] = read-out: pLC50 (the source's name) (converted)

Q: Which results are given for CC1(C)C[C@@H](O)[C@]2(C(=O)O)CC[C@]3(C)C(=CC[C@@H]4[C@@]5(C)C/C(=C\C=C\c6ccccc6)C(=O)C(C)(C)[C@@H]5CC[C@]43C)[C@@H]2C1?
A: growth at 100 µM (PC-3 [1]): -67%; GI50 (NCI-H23; read-out: GI50): 3.28 µM; CC50 (NCI-H23; [19]): 43.2 µM; TGI (NCI-H23; read-out: TGI): 12.3 µM; GI50 (NCI-H23; read-out: pGI50 (converted)): 3.31 µM; CC50 (NCI-H23; [20]): 43.7 µM; TGI (NCI-H23; read-out: pTGI (converted)): 12.3 µM; growth at 1 µM (MCF7 [2]): 95%; GI50 (NCI-H522 [3]; read-out: GI50): 2.46 µM; CC50 (NCI-H522 [3]; [19]): 29.4 µM; TGI (NCI-H522 [3]; read-out: TGI): 6.9 µM; GI50 (NCI-H522 [3]; read-out: pGI50 (converted)): 2.45 µM; CC50 (NCI-H522 [3]; [20]): 29.5 µM; TGI (NCI-H522 [3]; read-out: pTGI (converted)): 6.92 µM; growth at 100 µM (NCI-H226 [4]): -70%; growth at 0.01 µM [5]: 107%; growth at 1 µM (NCI-H522 [6]): 94%; growth at 1 µM (TK-10): 102%; growth at 0.1 µM [7]: 108%; growth at 0.1 µM (SNB-75): 89%; growth at 100 µM (ACHN): -93%; growth at 0.01 µM (SK-MEL-28): 99%; growth at 0.01 µM (IGROV-1): 107%; GI50 (SK-MEL-5; read-out: GI50): 1.76 µM; CC50 (SK-MEL-5; [19]): 6.11 µM; TGI (SK-MEL-5; read-out: TGI): 3.28 µM; GI50 (SK-MEL-5; read-out: pGI50 (converted)): 1.74 µM; CC50 (SK-MEL-5; [20]): 6.17 µM; TGI (SK-MEL-5; read-out: pTGI (converted)): 3.31 µM; GI50 (UO-31; read-out: GI50): 3.39 µM; CC50 (UO-31; [19]): 45.9 µM; TGI (UO-31; read-out: TGI): 13.6 µM; GI50 (UO-31; read-out: pGI50 (converted)): 3.39 µM; CC50 (UO-31; [20]): 45.7 µM; TGI (UO-31; read-out: pTGI (converted)): 13.5 µM; growth at 0.1 µM (OVCAR-8): 97%; growth at 1 µM (U-251 [8]): 85%; GI50 (SF-295; read-out: GI50): 2.4 µM; CC50 (SF-295; [19]): 49.8 µM; TGI (SF-295; read-out: TGI): 7.56 µM; GI50 (SF-295; read-out: pGI50 (converted)): 2.4 µM; CC50 (SF-295; [20]): 50.1 µM; TGI (SF-295; read-out: pTGI (converted)): 7.59 µM; growth at 1 µM (SF-268 [9]): 90%; growth at 0.01 µM (HOP-92): 99%; growth at 0.01 µM (MCF7 [10]): 95%; growth at 0.1 µM (MDA-MB-468): 96%; growth at 0.01 µM (NCI-H226 [11]): 97%; GI50 (NCI-H460; read-out: GI50): 2.67 µM; LC50 (NCI-H460; read-out: LC50): 44.1 µM; TGI (NCI-H460; read-out: TGI): 7.6 µM; GI50 (NCI-H460; read-out: pGI50 (converted)): 2.69 µM; LC50 (NCI-H460; read-out: pLC50 (converted)): 43.7 µM; TGI (NCI-H460; read-out: pTGI (converted)): 7.59 µM; GI50 (PC-3 [12]; read-out: GI50): 3.03 µM; CC50 (PC-3 [12]; [19]): 63.7 µM; TGI (PC-3 [12]; read-out: TGI): 16.3 µM; GI50 (PC-3 [12]; read-out: pGI50 (converted)): 3.02 µM; CC50 (PC-3 [12]; [20]): 63.1 µM; TGI (PC-3 [12]; read-out: pTGI (converted)): 16.2 µM; growth at 0.1 µM (M14): 95%; growth at 100 µM (SF-268 [13]): -83%; growth at 0.01 µM (SN12C [14]): 98%; GI50 (LOX IMVI; read-out: GI50): 1.9 µM; CC50 (LOX IMVI; [19]): 6.68 µM; TGI (LOX IMVI; read-out: TGI): 3.56 µM; GI50 (LOX IMVI; read-out: pGI50 (converted)): 1.91 µM; CC50 (LOX IMVI; [20]): 6.61 µM; TGI (LOX IMVI; read-out: pTGI (converted)): 3.55 µM; growth at 0.1 µM (RPMI-8226): 99%; growth at 1 µM (CAKI-1): 92%; growth at 1 µM (MDA-MB-231): 92%; growth at 1 µM (SN12C [15]): 91%; GI50 (MOLT-4; read-out: GI50): 2.48 µM; CC50 (MOLT-4; [19]): > 100 µM; TGI (MOLT-4; read-out: TGI): 7.84 µM; GI50 (MOLT-4; read-out: pGI50 (converted)): 2.45 µM; CC50 (MOLT-4; [20]): > 100 µM; TGI (MOLT-4; read-out: pTGI (converted)): 7.76 µM; growth at 1 µM (UACC-62 [16]): 88%; growth at 100 µM (U-251 [17]): -79%; growth at 0.1 µM (T47D): 96%; GI50 (UACC-62 [18]; read-out: GI50): 1.76 µM; CC50 (UACC-62 [18]; [19]): 7.84 µM; TGI (UACC-62 [18]; read-out: TGI): 3.71 µM; GI50 (UACC-62 [18]; read-out: pGI50 (converted)): 1.78 µM; CC50 (UACC-62 [18]; [20]): 7.76 µM; TGI (UACC-62 [18]; read-out: pTGI (converted)): 3.72 µM

From ChEMBL document CHEMBL2413072, “Synthesis and in vitro anticancer studies of novel C-2 arylidene congeners of lantadenes” (2013)
